Assays:
Format in all cases: in vivo
[1] = test system: common mosquito (Culex pipiens pallens); assay: Emergence inhibition test on last instar mosquito larvae (Test example 1); details: 0.01 ppm in water; 20 last instar larvae bred until emergence; two replications
Experimental: The emulsifiable concentrates of the following test compounds obtained according to Formulation example 1 were each diluted with water to a concentration of 0.01 ppm. Thereafter, 100 ml of each dilute solution thus obtained was put in a 180-ml polyethylene cup, and 20 last instar larvae of common mosquito (Culex pipiens pallens) were liberated therein. The larvae were bred on a bait until emergence to obtain an emergence inhibitory ratio (two replications).

[2] = test system: carmine spider mite (Tetranychus cinnabarinus); assay: Adult emergence inhibition test on sprayed deutonymphs (Test example 3); details: 3 ml sprayed, after three days
Experimental: The emulsifiable concentrates of the following test compounds obtained according to Formulation example 1 were each diluted with water to a pre-determined concentration to obtain a dilute solution of each emulsifiable concentrate. From 20 to 60 deutonymphs of carmine spider mite (Tetranychus cinnabarinus) were transferred onto leaves in a petri dish, and 3 ml of the dilute solution was sprayed thereon. After three days, the number of the adults was counted to obtain an adult emergence inhibitory ratio.

[3] = test system: carmine spider mite (Tetranchus cinnabarinus); assay: Sterilization test on sprayed female adults, egg hatchability (Test example 4); details: 100 ppm, 3 ml sprayed on female adults; oviposition three days; hatchability after six days at 27°C
Experimental: The emulsifiable concentrates of the following test compounds obtained according to Formulation example 1 were each diluted with water to a concentration of 100 ppm to obtain a dilute solution of each emulsifiable concentrate. Thirty female adults of carmine spider mite (Tetranchus cinnabarinus) were transferred onto a leaf in a petri dish, and 3 ml of the dilute solution was sprayed thereon. After air-drying, 18 female adults were transferred onto untreated leaves in a petri dish, and allowed to oviposit for three days. The eggs obtained were stored in a chamber controlled at 27°C in an artificial weather room. After six days, hatchability of the eggs was examined to obtain a sterilization ratio.

[4] = test system: tobacco cutworm (Spodoptera litura); assay: Mortality test on fourth instar larvae with treated artificial diet (Test example 2); details: 50 ppm, 2 ml on 13 g artificial diet, after six days, two replications, 8640 min
Source text: The emulsifiable concentrates of the following test compounds obtained according to Formulation example 1 were each diluted with water to a concentration of 50 ppm. Two milliliters of each dilute solution thus obtained was applied onto 13 g of artificial diet for tobacco cutworm (Spodoptera litura) which were then put in a polyethylene cup of 11 cm in diameter. Then, ten fourth instar larvae of tobacco cutworm were liberated in the cup. After six days, the dead and alive were examined to obtain mortality (two replications).

[5] = test system: carmine spider mite (Tetranychus cinnabarinus); assay: Degree of mite damage on potted kidney bean after spray and soil treatment (Test example 5); parameters: key: -: Little damage is observed.; +: Slight damage is observed.; ++: Same damage as in the untreated plot is observed; details: 500 ppm, 10 ml sprayed on plant, 2 ml on pot soil, after 20 days
Experimental: Ten female adults of carmine spider mite (Tetranychus cinnabarinus) were transferred onto each leaf of potted kidney bean in a primary leaf stage, which had elapsed seven days after sowing, and stored in a constant-temperature room kept at 25°C. After six days, the emulsifiable concentrate of the following test compounds formulated according to Formulation example 1 was diluted with water so that the active ingredient concentration was 500 ppm. Ten milliliters of the dilute solution was sprayed onto the plant on a turn table by a spray gun, and 2 ml of the diluted solution was treated on the pot soil. After 20 days, the degree of damage of each kidney bean by mites was examined.
The degree of damage was classified into three stages, -, + and ++. - : Little damage is observed. + : Slight damage is observed. ++: Same damage as in the untreated plot is observed.

Row | SMILES | Emergence inhibitory ratio (%) [1] | Concentration and adult emergence inhibitory ratio (%) 100 ppm [2] | Sterilization ratio (%) [3] | Mortality (%) [4] | Degree of damage [5] | Concentration and adult emergence inhibitory ratio (%) 500 ppm ([2]; 500 ppm)
1 | O=C(NC(=O)c1c(F)cccc1F)Nc1cc(Cl)c(Nc2ccc(OC(F)(F)C(F)F)cc2)c(Cl)c1 [(3), N-2,6-difluorobenzoyl-Nʹ-3,5-dichloro-4-[4-(1,1,2,2-tetrafluoroethoxy)anilino]phenylurea] | 100% | 91% | 95% | 100% |  | 
2 | O=C(NC(=O)c1c(F)cccc1F)Nc1cc(Cl)c(Nc2ccc(OC(F)(F)F)cc2)c(Cl)c1 [(1), N-2,6-difluorobenzoyl-Nʹ-3,5-dichloro-4-[4-(trifluoromethoxy)anilino]phenylurea] | 100% | 100% | 98% | 100% | - | 94%

— patent publication EP0278673B1, “A benzoylurea derivative and its production and use” (priority 1987, dated 1988)
